Reference: US20230149355A1, “COMPOSITIONS AND METHODS FOR MODULATING TRP CHANNEL ACTIVITY” (priority 2020, published 2023)

Legend:
mouse TRPA1 = biological target: T1, mouse TRPA1 (Mus musculus, UniProt Q8BLA8); experiment: Ca2+ influx (Calcium 6 fluorescence) in mouse Trpa1-expressing HEK-293T cells; format: cell-based
T1 construct: expressed in transfected cells; host or cells: HEK-293T
Method: HEK-293T cells were cultured in DMEM (Thermofisher Scientific, Waltham, Mass.) and supplemented with 10% fetal bovine serum (FBS) (Thermofisher Scientific), penicillin (100 units/mL) and streptomycin (0.1 mg/mL). Cells were plated on 100 mm tissue culture plates coated with poly-D-lysine (Sigma Aldrich, Saint Louis, Mo.) and grown to ˜60% confluence. The cells were transiently transfected for 16-24 hours with either human or mouse orthologs of TRPA1 using Fugene 6 transfection reagents and Opti-MEM (Thermofisher Scientific) according to the manufacturer's protocol. Subsequently, cells were trypsinized, re-suspended and re-plated onto poly-D-lysine coated 96-well plates (Krystal black walled plates, Genesee Scientific) at 5×10^5 cells/mL (100 μL/well) and allowed to grow for another 16-20 hrs prior to the experiments. Cells were maintained as monolayers in a 5% CO2 incubator at 37° C.
Measurements of changes in intracellular Ca^2+ concentrations ([Ca^2+]i) were performed as described previously (Caceres et al., 2017). In brief, cells in 96-well plates were loaded with Calcium 6, a no-wash fluorescent indicator, for 1.5 hrs (Molecular Devices, San Jose, Calif.) and then transferred to a FlexStation III benchtop scanning fluorometer chamber (Molecular Devices). Fluorescence measurements in the FlexStation were performed at 37° C. (Ex:485 nm, Em: 525 nm at every 1.8 s). After recording baseline fluorescence, agonists (indole, IAld, cinnamaldehyde) were added and fluorescence was monitored for a total of 60 s. […] The change in fluorescence was measured as Fmax-F0, where Fmax is the maximum fluorescence and F0 is the baseline fluorescence measured in each well.

zebrafish EECs (Trpa1) = experiment: In vivo EEC calcium, Tg(neurod1:Gcamp6f) zebrafish; conditions: trpa1b-dependent
Method: To record in vivo EEC activity using the Tg(neurod1:Gcamp6f) system, a published protocol with slight modification (Ye et al., 2019) was used. In brief, unanesthetized zebrafish larvae were gently mounted in 3% methylcellulose. Excess water was removed and zebrafish larvae were gently positioned with right side up. Zebrafish were then moved onto an upright Leica M205 FA fluorescence stereomicroscope equipped with a Leica DFC 365FX camera. The zebrafish larvae were allowed to recover for 2 mins before 100 μL of test agent was pipetted directly in front of the mouth region. Images were then recorded every 10 seconds. The data shown in FIG. 2O-R, depicting the EEC responses to E. tarda stimulation, were obtained by mounting unanesthetized zebrafish larvae in 1% low melting agarose. A window (5×5 mm) was cut to expose the head region of the zebrafish. 10 μL of E. tarda culture [˜10^9 Colony Forming Unit (CFU)] were delivered at the zebrafish mouth area. Images were recorded every 10 secs for 20 mins. Image processing and analysis were performed using FIJI software. Time-lapse fluorescence images were first aligned to correct for experimental drift using the plugin “align slices in stack.” Normalized correlation coefficient matching and bilinear interpolation methods for subpixel translation were used for aligning slices (Tseng et al., 2012). The plugin “rolling ball background subtraction” with the rolling ball radius=10 pixels was used to remove the large spatial variation of background intensities. The Gcamp6f fluorescence intensity in the intestinal region was then calculated for each time point. The ratio of maximum fluorescence (Fmax) and the initial fluorescence (F0) was used to measure EEC calcium responses.
For EEC Trpa1 activation using the Optovin platform, zebrafish larvae were treated with 10 μM Optovin overnight. Following Optovin treatment, unanesthetized zebrafish were mounted in 1% LMA and imaged under a 780 upright Zeiss confocal microscope using 20× water objective lenses. For all the experiments, the mid-intestine region was imaged (FIG. 10D). The intestinal epithelium was selected as the region of interest (ROI) (FIG. 10A). Serial images were obtained at 1 s/frame. A 405 nm pulse of light was applied to the ROI at 1 pulse/10 s. For some experiments (FIG. 7D-F, FIG. 10B-G), the images were obtained at 10 s/frame. When measuring Optovin effects on intestinal motility in ret−/−, sox10−/− or tph1b−/− zebrafish larvae, embryos were collected from heterozygous zebrafish. ret−/− zebrafish were identified by lack of ENS and deflated swim bladder (Knight et al., 2011), sox10−/− zebrafish were identified by lack of pigment (Rolig et al., 2017), and tph1b−/− zebrafish were identified by PCR-based genotyping (Tornini et al., 2017).
To determine whether Optovin-UV or ChR2 was sufficient to activate EECs, Tg(neurod1:Gcamp6f) zebrafish were used. […] The Gcamp6f signal was recorded with 488 nm laser intensity less than 0.5. The zebrafish intestinal motility is quantified through recorded image series of zebrafish intestine using the method similar as previously described (Ganz et al., 2018). […] When calculating the mean velocity, only the mean velocity magnitude was calculated, which therefore doesn't account for the movement direction. The MTrackJ FIJI plugin was used to quantify the mean velocity magnitude (Meijering et al., 2012).

vagal sensory neurons = experiment: In vivo calcium imaging of vagal sensory ganglia after microgavage; design: species or system zebrafish
Method: For delivering bacterial or chemicals specifically to the intestine, the established microgavage technique (Cocchiaro and Rawls, 2013) was adopted. Zebrafish were anesthetized with 1 mg/mL α-Bungarotoxin (α-BTX) and the gavage procedure was performed as previously described using microinjection station (Cocchiaro and Rawls, 2013). For bacteria gavage experiments, 1 ml of overnight bacterial culture was harvested, pelleted, washed with PBS and resuspended in 100 ul PBS.˜8 nl was then delivered into the zebrafish intestine using microgavage. The gavaged zebrafish was then transferred into egg water and mounted in 1% LMA for imaging. For chemical gavage experiments, ˜8 nl of AITC (100 mM), indole (1 mM) and IAld (1 mM) was gavaged into the intestine.
Tg(neurod1:Gcamp6f); Tg(neurod1:TagRFP) zebrafish were used to record vagal sensory ganglia calcium activity in vivo. Zebrafish were anesthetized with 1 mg/mL α-Bungarotoxin (α-BTX) and gavaged with chemical compounds or bacteria as described (Naumann et al., 2016). Zebrafish larvae were mounted in 1% LMA and imaged under a Zeiss 780 upright confocal microscope. Z-stack images of the entire vagal ganglia were collected as serial images at 10 mins/frame and processed in FIJI. Individual vagal sensory neurons were identified and the Gcamp6f to TagRFP fluorescence ratios of individual vagal sensory neurons were calculated.

T1 sequence (Q8BLA8 whole entry): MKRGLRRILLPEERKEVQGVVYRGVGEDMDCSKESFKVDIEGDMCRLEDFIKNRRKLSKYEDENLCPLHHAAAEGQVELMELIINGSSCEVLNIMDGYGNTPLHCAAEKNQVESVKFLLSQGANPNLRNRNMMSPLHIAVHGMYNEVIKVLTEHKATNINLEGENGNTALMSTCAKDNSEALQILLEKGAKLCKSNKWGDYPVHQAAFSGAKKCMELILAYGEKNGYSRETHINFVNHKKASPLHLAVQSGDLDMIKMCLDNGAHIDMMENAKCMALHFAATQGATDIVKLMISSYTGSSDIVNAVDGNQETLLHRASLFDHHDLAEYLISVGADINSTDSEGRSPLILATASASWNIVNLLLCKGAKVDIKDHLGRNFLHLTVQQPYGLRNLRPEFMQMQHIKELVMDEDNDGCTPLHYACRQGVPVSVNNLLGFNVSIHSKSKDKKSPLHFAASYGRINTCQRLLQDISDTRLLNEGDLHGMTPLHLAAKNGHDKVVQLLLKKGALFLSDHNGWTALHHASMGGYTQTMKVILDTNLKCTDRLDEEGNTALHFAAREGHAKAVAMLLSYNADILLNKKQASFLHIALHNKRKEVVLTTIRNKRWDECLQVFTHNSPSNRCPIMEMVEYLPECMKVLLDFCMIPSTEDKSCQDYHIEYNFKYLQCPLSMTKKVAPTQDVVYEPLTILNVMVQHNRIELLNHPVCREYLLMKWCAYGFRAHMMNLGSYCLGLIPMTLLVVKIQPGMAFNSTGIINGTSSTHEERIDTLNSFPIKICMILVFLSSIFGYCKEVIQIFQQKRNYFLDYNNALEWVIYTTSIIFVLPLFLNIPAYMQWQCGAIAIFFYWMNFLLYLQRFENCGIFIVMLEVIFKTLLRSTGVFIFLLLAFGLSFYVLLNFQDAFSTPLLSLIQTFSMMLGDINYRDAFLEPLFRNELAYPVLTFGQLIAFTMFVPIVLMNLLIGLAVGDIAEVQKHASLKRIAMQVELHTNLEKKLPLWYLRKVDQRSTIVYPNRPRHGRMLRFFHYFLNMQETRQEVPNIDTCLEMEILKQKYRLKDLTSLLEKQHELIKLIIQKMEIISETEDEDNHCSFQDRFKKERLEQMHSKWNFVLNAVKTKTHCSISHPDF

SMILES: c1ccc2[nH]ccc2c1 [Indole]
- EC50 (mouse TRPA1): 131 µM
- Activation of mouse Trpa1 (mouse TRPA1; compared with human TRPA1): activated mouse Trpa1, but in a less potent manner
- Zebrafish EEC activation (Gcamp6f fluorescence) (zebrafish EECs (Trpa1)): strongly activated
- Vagal sensory neuron activation in larvae lacking EECs (vagal sensory neurons; EEC-ablated zebrafish, enteric indole): abrogated
- Gcamp6f fluorescence in a subset of vagal sensory neurons (vagal sensory neurons; WT, enteric microgavage ~8 nl, AITC 100 mM, indole 1 mM, IAld 1 mM): increased
